Data reported in paper PMC7957392, “Yeast translation elongation factor eEF3 promotes late stages of tRNA translocation” (The EMBO Journal, 2021).

Molecular target: T1, eEF3 (C‐terminally TAP‐tagged, in native eEF3‐80S complex) (Saccharomyces cerevisiae, UniProt P16521)
T1 construct: gene YEF3; final 68 C-terminal residues including tag not modelled
T1 sequence (P16521 2-1044): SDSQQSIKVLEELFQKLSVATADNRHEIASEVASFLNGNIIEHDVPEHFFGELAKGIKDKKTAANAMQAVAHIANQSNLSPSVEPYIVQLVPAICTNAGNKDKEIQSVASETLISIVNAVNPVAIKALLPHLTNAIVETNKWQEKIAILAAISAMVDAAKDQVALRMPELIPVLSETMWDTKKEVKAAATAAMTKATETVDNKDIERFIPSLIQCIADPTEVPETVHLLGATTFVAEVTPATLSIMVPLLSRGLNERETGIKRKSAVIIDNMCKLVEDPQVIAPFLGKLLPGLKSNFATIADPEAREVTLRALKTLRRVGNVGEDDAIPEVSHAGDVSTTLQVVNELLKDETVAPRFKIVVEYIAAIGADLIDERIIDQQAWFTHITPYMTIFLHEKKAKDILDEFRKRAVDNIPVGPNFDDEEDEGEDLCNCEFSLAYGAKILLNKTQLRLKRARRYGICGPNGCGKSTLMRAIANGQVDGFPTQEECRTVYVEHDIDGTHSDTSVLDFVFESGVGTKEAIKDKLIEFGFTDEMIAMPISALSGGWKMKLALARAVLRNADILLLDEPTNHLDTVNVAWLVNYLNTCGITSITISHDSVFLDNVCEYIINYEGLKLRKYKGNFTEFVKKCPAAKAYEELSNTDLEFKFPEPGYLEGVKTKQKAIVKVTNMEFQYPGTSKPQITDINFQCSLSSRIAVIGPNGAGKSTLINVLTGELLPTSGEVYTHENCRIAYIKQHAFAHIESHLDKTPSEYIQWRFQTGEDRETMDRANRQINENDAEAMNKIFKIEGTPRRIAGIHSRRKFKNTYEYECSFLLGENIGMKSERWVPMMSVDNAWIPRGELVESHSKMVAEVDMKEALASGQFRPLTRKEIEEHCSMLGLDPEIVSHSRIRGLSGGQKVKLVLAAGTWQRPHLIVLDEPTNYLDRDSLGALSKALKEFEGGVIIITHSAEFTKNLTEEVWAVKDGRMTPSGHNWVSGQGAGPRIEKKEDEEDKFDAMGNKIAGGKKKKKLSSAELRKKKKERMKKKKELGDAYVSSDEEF
Assay: cryo-EM structure of native eEF3-80S complex ([…] Å)
Conditions: ABC1 and ABC2 nucleotide-binding sites; complex eluted with 1 mM ADPNP, pH 7.4, 10 mM Mg(OAc)2; density assigned by authors as ATP (or ADPNP), identity not resolved

Nc1ncnc2c1ncn2[C@@H]1O[C@H](COP(=O)(O)OP(=O)(O)NP(=O)(O)O)[C@@H](O)[C@H]1O [ADPNP]
cryo-EM structure of native eEF3-80S complex (3.3 Å): electron density consistent with ATP (or ADPNP) was observed in the active sites of ABC1
